Reference: the Kinase Knowledgebase extract (Sharma et al. 2016)

What was measured:
EGFR (human) [1] = target: EGFR (human) (UniProt P00533); experiment: Assessment of DiFi Cell Growth Inhibition by MTS Assay
EGFR (human) [2] = target: EGFR (human) (UniProt P00533); conditions: huvec
EGFR = EGFR (UniProt P00533)
EGFR, sequence (P00533 whole entry, looked up): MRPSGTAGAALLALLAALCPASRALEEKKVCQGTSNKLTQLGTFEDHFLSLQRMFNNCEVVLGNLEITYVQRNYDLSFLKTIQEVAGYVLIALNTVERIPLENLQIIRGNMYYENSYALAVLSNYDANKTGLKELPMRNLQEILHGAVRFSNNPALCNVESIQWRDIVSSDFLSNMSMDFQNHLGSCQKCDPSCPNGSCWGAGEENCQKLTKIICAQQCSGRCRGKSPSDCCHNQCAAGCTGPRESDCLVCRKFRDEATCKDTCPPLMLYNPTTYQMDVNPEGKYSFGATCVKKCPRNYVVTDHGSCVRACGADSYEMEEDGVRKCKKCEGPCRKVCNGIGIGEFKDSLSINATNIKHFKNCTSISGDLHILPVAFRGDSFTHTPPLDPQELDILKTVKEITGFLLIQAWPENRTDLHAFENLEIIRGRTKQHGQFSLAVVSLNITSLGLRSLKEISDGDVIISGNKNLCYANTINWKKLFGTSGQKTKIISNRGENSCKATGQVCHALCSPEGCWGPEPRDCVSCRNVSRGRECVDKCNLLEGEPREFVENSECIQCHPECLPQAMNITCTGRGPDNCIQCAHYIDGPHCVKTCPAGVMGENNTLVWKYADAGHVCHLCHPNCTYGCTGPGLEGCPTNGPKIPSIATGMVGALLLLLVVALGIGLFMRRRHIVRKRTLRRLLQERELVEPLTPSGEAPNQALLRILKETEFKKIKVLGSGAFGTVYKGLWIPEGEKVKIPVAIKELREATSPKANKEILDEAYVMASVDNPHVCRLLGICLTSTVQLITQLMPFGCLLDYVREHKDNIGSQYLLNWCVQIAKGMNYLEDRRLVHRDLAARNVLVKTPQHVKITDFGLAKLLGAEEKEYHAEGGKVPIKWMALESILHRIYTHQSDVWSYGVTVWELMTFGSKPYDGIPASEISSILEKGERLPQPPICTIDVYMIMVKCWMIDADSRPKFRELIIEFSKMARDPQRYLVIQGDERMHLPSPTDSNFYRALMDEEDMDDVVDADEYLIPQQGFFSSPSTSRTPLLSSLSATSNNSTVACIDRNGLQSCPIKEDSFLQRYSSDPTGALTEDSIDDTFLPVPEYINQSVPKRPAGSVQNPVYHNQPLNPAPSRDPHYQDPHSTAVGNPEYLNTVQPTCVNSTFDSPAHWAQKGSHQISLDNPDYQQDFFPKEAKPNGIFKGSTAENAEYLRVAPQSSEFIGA

EGFR (human), sequence (P00533 whole entry, looked up): as above

| SMILES | IC50 (EGFR (human) [1]) [nM] | IC50 (EGFR (human) [2]) [nM] | IC50 (EGFR) [nM] |
| --- | --- | --- | --- |
| Cc1ccc(Nc2ncnn3cc(C)c(C)c23)cc1O | > 10000 |  |  |
| Cc1ccc(Nc2ncnn3ccc(C)c23)cc1O | > 10000 | 270 |  |
| Cc1cc2c(Nc3ccc(F)c(Cl)c3)ncnn2c1 | 1600 | 509 |  |
| Cc1ccc(Nc2ncnn3c(C)ccc23)cc1O | > 10000 | 101 |  |
| Cc1ccc(Nc2ncnn3cccc23)cc1O | > 10000 |  |  |

Second part, the compound after the results:

| IC50 (EGFR (human) [1]) [nM] | IC50 (EGFR (human) [2]) [nM] | IC50 (EGFR) [nM] | SMILES |
| --- | --- | --- | --- |
| > 10000 |  |  | Cc1cc2c(Nc3ccc(C)c(O)c3)ncnn2c1 |
| > 10000 | > 2500 |  | Cc1ccc2c(Nc3ccc(F)c(Cl)c3)ncnn12 |
| 1840 | 345 | 118 | Fc1ccc(Nc2ncnn3cccc23)cc1Cl |
| 3060 | 602 |  | Cc1ccn2ncnc(Nc3ccc(F)c(Cl)c3)c12 |
